Experimental data taken from PubChem BioAssay AID192 (DTP/NCI, 2004).
Values joined by “and” are separate entries in the source; they are usually repeats but may differ in a detail not shown here. Equal values may be shown once. Inconclusive results and toxic doses are left out. Rule for the calls: active = survival T/C of 150% or more; inactive = T/C below 125% in these data.

Tested on: BDF1 mice, B16 melanoma ip, median survival T/C
Experiment: NCI In Vivo Anticancer Drug Screen. Data for tumor model B16 Melanoma (intraperitoneal) in B6D2F1 (BDF1) mice
Settings: endpoint: median survival time, higher = longer survival
Outline: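 Antitumor activity is assessed in mice bearing a transplanted tumor, with survival or tumor size compared against vehicle-dosed controls and expressed as T/C.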

[1] = dose: 50.0 mg/kg/injection, schedule: Q01DX009 (ip), vehicle: saline with Tween-80
[2] = dose: 100.0 mg/kg/injection, schedule: Q01DX009 (ip), vehicle: saline with Tween-80

Measured: T/C

O=C(O)C1CC(c2ccccc2)=NN1c1ccccc1 (stereo not drawn)
inactive: dose: 12.5 mg/kg/injection, schedule: Q01DX009 (ip), vehicle: water 104 % of control | dose: 25.0 mg/kg/injection, schedule: Q01DX009 (ip), vehicle: water 99 % of control and 100 % of control | dose: 50.0 mg/kg/injection, schedule: Q01DX009 (ip), vehicle: water 99 % of control | dose: 100.0 mg/kg/injection, schedule: Q01DX009 (ip), vehicle: water 97 % of control and 110 % of control | dose: 200.0 mg/kg/injection, schedule: Q01DX009 (ip), vehicle: water 104 % of control and 110 % of control

COC1CCCCC1I (stereo not drawn)
inactive: dose: 50.0 mg/kg/injection, schedule: Q01DX009 (ip), vehicle: alcohol 100 % of control | dose: 75.0 mg/kg/injection, schedule: Q04DX003 (ip), vehicle: alcohol 95 % of control | dose: 100.0 mg/kg/injection, schedule: Q01DX009 (ip), vehicle: alcohol 92 % of control | dose: 150.0 mg/kg/injection, schedule: Q04DX003 (ip), vehicle: alcohol 92 % of control

CC(=O)Nc1ccc2c(ccc3ccccc32)c1
inactive: dose: 25.0 mg/kg/injection, schedule: Q01DX009 (ip), vehicle: saline with Tween-80 90 % of control | [1] 102 % of control | [2] 89 % of control

O=C(Nc1ccccc1)Nc1nccs1
inactive: dose: 12.5 mg/kg/injection, schedule: Q01DX009 (ip), vehicle: Klucel (hydroxypropylcellulose) (HPC) 91 % of control | dose: 25.0 mg/kg/injection, schedule: Q01DX009 (ip), vehicle: Klucel (hydroxypropylcellulose) (HPC) 93 % of control and 113 % of control | dose: 50.0 mg/kg/injection, schedule: Q01DX009 (ip), vehicle: Klucel (hydroxypropylcellulose) (HPC) 98 % of control and 102 % of control | dose: 100.0 mg/kg/injection, schedule: Q01DX009 (ip), vehicle: Klucel (hydroxypropylcellulose) (HPC) 93 % of control and 99 % of control | dose: 200.0 mg/kg/injection, schedule: Q01DX009 (ip), vehicle: Klucel (hydroxypropylcellulose) (HPC) 94 % of control and 100 % of control

COc1ccc2c3c1OC1CC(O)C=CC31CCN(C)C2 (stereo not drawn)
inactive: dose: 1.25 mg/kg/injection, schedule: Q01DX009 (ip), vehicle: saline with Tween-80 106 % of control | dose: 2.5 mg/kg/injection, schedule: Q01DX009 (ip), vehicle: saline 103 % of control | dose: 5.0 mg/kg/injection, schedule: Q01DX009 (ip), vehicle: saline with Tween-80 105 % of control and 113 % of control | dose: 10.0 mg/kg/injection, schedule: Q01DX009 (ip), vehicle: saline with Tween-80 95 % of control

CCC1(c2ccccc2)SC(=O)NC1=O (stereo not drawn)
inactive: [1] 98 % of control | [2] 104 % of control
